{"source": "ChEMBL document CHEMBL5661979", "about": "“Pharmacological inhibition of BMK1 suppresses tumor growth through promyelocytic leukemia protein” (Cancer Cell, 2010)", "key": {"[1]": {"target": "Casein kinase I isoform alpha (Homo sapiens, UniProt P48729)", "sequence (P48729 2-337 limits assumed)": "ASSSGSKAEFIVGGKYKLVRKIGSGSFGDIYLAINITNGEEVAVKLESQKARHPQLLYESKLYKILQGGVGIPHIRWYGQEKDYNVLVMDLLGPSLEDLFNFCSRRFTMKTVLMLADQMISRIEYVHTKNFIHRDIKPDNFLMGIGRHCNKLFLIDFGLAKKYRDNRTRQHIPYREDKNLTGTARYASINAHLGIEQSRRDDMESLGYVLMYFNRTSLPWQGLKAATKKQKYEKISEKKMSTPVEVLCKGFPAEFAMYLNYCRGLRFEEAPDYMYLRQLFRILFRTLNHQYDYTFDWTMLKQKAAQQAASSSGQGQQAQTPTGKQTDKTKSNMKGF", "assay": "Inhibition of CK1alpha in human HeLa cells lysate at 2 uM pre incubated for 15 mins followed by ATP acyl phosphate probe addition and measured after 10 mins by LC-MS/MS analysis relative to control", "format": "subcellular", "conditions": "time 25.0 min"}, "[2]": {"target": "c-Jun N-terminal kinase, JNK (Homo sapiens, UniProt P45983+P53779+P45984)", "assay": "Inhibition of JNK1/JNK2/JNK3 in human HeLa cells lysate at 50 uM pre incubated for 15 mins followed by ATP acyl phosphate probe addition and measured after 10 mins by LC-MS/MS analysis relative to control", "format": "subcellular", "conditions": "time 25.0 min"}, "[3]": {"target": "Ribosomal protein S6 kinase alpha-3 (Homo sapiens, UniProt P51812)", "sequence (P51812 whole entry, the tested form may be a part)": "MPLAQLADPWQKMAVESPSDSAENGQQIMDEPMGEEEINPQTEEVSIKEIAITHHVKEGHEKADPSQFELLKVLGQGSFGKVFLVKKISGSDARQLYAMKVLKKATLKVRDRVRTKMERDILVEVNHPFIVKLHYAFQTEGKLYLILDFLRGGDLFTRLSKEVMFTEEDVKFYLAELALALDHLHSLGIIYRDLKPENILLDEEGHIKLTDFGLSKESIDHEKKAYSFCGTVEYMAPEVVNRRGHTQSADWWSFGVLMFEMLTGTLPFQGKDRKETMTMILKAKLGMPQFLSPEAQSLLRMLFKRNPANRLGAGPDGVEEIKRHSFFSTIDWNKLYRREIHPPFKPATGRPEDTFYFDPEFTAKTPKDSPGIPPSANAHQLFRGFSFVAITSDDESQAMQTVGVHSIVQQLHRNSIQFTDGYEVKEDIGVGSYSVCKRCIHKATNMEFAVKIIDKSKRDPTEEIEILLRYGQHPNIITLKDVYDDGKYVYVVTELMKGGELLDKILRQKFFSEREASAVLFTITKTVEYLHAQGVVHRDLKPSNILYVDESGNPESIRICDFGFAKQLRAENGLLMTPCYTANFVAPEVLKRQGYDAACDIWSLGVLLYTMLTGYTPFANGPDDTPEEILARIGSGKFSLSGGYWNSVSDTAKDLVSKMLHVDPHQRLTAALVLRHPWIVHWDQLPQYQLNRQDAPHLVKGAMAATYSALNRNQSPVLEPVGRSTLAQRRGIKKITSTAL", "assay": "Inhibition of RSK2 domain 1 active form in human HeLa cells lysate at 50 uM pre incubated for 15 mins followed by ATP acyl phosphate probe addition and measured after 10 mins by LC-MS/MS analysis relative to control", "format": "subcellular", "conditions": "time 25.0 min"}, "[4]": {"target": "Dual specificity mitogen-activated protein kinase kinase; MEK1/2 (Homo sapiens, UniProt P36507+Q02750)", "assay": "Inhibition of MAP2K1/MAP2K2 in human HeLa cells lysate pre incubated for 15 mins followed by ADP acyl phosphate probe addition and measured after 10 mins by LC-MS/MS analysis", "format": "subcellular"}, "[5]": {"target": "T1, Serine/threonine-protein kinase Nek9 (Homo sapiens) (UniProt Q8TD19)", "T1 sequence (whole entry)": "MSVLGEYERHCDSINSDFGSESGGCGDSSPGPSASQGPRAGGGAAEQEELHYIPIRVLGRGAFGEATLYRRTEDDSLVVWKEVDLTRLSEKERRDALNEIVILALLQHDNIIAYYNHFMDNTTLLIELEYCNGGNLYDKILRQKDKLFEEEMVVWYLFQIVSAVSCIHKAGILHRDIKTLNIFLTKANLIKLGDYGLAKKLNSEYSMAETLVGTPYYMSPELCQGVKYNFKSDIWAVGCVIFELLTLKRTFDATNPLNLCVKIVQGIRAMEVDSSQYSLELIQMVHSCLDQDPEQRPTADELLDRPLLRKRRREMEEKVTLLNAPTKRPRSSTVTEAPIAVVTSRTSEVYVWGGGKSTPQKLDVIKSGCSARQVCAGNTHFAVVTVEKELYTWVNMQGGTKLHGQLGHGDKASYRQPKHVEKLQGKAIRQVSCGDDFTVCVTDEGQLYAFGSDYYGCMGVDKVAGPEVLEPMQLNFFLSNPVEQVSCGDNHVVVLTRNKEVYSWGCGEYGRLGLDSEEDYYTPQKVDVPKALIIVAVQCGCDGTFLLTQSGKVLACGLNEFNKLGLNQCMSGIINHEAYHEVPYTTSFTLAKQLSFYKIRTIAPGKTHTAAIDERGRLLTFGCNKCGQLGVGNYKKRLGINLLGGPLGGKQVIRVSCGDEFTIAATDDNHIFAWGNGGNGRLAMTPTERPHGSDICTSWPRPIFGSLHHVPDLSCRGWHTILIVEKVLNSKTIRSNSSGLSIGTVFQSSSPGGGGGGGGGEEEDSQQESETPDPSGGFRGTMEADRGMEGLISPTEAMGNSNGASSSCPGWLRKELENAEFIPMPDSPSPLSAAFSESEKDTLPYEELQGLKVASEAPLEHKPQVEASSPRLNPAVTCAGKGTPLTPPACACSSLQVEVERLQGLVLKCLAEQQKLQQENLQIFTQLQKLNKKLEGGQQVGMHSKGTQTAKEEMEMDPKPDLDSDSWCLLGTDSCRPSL", "assay": "Inhibition of NEK9 in human HeLa cells lysate at 10 uM pre incubated for 15 mins followed by ATP acyl phosphate probe addition and measured after 10 mins by LC-MS/MS analysis relative to control", "format": "subcellular", "conditions": "time 25.0 min"}, "[6]": {"target": "T2, Interleukin-1 receptor-associated kinase 4 (Homo sapiens) (UniProt Q9NWZ3)", "T2 sequence (whole entry)": "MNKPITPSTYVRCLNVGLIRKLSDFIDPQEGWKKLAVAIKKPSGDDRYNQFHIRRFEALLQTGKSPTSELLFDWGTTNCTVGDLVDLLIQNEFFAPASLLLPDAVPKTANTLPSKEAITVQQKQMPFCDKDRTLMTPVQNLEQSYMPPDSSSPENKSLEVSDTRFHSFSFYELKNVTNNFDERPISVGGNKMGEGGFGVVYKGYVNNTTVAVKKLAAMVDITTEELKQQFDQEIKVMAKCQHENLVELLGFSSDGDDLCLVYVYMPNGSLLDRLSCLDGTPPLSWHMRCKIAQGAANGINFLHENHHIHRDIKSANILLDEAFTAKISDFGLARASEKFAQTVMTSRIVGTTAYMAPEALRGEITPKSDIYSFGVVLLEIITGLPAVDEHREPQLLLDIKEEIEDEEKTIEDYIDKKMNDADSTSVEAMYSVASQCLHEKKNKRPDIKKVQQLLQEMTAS", "assay": "Inhibition of IRAK4 in human HeLa cells lysate at 50 uM pre incubated for 15 mins followed by ADP acyl phosphate probe addition and measured after 10 mins by LC-MS/MS analysis relative to control", "format": "subcellular", "conditions": "time 25.0 min"}, "[7]": {"target": "Cyclin-G-associated kinase (Homo sapiens) (UniProt O14976)", "sequence (O14976 whole entry)": "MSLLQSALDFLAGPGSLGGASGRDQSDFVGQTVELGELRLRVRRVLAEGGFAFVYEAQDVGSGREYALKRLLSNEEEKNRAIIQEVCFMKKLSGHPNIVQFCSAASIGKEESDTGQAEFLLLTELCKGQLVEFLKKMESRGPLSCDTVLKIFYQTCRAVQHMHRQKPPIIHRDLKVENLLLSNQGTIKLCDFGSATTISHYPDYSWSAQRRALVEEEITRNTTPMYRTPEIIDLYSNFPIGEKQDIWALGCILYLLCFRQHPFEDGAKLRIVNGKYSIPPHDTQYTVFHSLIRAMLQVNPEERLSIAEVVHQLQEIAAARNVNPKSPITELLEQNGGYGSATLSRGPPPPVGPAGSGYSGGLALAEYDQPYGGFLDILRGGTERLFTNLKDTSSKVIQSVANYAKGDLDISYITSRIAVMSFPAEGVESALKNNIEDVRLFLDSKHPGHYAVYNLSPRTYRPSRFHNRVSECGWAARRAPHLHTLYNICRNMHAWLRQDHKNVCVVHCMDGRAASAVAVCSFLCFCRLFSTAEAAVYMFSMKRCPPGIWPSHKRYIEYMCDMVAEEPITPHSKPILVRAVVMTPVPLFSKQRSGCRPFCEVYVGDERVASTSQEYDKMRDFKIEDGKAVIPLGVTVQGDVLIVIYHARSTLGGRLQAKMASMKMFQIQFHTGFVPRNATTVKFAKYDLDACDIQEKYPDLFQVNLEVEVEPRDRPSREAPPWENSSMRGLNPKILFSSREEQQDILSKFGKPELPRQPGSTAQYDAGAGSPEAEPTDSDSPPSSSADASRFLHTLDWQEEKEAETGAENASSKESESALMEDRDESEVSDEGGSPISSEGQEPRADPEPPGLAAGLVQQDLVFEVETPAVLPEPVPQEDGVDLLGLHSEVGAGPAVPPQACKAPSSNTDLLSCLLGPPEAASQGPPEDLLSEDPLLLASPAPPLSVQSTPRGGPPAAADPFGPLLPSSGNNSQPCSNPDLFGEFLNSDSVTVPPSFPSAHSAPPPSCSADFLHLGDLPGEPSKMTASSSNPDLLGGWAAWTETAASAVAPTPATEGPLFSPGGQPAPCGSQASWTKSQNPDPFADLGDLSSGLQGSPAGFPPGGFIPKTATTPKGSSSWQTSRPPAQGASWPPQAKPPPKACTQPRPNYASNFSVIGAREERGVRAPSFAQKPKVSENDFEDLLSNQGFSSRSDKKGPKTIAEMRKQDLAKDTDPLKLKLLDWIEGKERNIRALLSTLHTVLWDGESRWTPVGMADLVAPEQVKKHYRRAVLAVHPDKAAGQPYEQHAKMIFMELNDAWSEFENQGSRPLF", "assay": "Inhibition of GAK (unknown origin) assessed as remaining activity at 10 uM by ATP-competition binding assay relative to control"}, "[8]": {"target": "Phosphatidylinositol 4-kinase beta (Homo sapiens, UniProt Q9UBF8)", "assay": "Inhibition of PIK4CB in human HeLa cells lysate pre incubated for 15 mins followed by ATP acyl phosphate probe addition and measured after 10 mins by LC-MS/MS analysis", "format": "subcellular"}, "[9]": {"target": "T3, Phosphatidylinositol 5-phosphate 4-kinase type-2 alpha (Homo sapiens) (UniProt P48426)", "T3 sequence (whole entry)": "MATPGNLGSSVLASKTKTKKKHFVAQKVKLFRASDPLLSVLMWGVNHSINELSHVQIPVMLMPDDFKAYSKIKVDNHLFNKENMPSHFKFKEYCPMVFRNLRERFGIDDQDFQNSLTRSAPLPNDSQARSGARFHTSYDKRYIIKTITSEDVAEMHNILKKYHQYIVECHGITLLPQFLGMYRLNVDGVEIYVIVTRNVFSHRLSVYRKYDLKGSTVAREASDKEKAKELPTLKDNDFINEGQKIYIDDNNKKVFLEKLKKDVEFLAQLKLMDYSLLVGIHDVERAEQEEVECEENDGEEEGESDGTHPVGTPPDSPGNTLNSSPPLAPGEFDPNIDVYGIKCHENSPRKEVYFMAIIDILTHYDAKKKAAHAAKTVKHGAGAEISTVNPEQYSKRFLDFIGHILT", "assay": "Inhibition of PIP5K2A LIP site in human HeLa cells lysate at 10 uM pre incubated for 15 mins followed by ADP acyl phosphate probe addition and measured after 10 mins by LC-MS/MS analysis relative to control", "format": "subcellular", "conditions": "time 25.0 min"}, "[10]": {"target": "Serine/threonine-protein kinase WNK1 (Homo sapiens, UniProt Q9H4A3)", "sequence (Q9H4A3 whole entry, looked up)": "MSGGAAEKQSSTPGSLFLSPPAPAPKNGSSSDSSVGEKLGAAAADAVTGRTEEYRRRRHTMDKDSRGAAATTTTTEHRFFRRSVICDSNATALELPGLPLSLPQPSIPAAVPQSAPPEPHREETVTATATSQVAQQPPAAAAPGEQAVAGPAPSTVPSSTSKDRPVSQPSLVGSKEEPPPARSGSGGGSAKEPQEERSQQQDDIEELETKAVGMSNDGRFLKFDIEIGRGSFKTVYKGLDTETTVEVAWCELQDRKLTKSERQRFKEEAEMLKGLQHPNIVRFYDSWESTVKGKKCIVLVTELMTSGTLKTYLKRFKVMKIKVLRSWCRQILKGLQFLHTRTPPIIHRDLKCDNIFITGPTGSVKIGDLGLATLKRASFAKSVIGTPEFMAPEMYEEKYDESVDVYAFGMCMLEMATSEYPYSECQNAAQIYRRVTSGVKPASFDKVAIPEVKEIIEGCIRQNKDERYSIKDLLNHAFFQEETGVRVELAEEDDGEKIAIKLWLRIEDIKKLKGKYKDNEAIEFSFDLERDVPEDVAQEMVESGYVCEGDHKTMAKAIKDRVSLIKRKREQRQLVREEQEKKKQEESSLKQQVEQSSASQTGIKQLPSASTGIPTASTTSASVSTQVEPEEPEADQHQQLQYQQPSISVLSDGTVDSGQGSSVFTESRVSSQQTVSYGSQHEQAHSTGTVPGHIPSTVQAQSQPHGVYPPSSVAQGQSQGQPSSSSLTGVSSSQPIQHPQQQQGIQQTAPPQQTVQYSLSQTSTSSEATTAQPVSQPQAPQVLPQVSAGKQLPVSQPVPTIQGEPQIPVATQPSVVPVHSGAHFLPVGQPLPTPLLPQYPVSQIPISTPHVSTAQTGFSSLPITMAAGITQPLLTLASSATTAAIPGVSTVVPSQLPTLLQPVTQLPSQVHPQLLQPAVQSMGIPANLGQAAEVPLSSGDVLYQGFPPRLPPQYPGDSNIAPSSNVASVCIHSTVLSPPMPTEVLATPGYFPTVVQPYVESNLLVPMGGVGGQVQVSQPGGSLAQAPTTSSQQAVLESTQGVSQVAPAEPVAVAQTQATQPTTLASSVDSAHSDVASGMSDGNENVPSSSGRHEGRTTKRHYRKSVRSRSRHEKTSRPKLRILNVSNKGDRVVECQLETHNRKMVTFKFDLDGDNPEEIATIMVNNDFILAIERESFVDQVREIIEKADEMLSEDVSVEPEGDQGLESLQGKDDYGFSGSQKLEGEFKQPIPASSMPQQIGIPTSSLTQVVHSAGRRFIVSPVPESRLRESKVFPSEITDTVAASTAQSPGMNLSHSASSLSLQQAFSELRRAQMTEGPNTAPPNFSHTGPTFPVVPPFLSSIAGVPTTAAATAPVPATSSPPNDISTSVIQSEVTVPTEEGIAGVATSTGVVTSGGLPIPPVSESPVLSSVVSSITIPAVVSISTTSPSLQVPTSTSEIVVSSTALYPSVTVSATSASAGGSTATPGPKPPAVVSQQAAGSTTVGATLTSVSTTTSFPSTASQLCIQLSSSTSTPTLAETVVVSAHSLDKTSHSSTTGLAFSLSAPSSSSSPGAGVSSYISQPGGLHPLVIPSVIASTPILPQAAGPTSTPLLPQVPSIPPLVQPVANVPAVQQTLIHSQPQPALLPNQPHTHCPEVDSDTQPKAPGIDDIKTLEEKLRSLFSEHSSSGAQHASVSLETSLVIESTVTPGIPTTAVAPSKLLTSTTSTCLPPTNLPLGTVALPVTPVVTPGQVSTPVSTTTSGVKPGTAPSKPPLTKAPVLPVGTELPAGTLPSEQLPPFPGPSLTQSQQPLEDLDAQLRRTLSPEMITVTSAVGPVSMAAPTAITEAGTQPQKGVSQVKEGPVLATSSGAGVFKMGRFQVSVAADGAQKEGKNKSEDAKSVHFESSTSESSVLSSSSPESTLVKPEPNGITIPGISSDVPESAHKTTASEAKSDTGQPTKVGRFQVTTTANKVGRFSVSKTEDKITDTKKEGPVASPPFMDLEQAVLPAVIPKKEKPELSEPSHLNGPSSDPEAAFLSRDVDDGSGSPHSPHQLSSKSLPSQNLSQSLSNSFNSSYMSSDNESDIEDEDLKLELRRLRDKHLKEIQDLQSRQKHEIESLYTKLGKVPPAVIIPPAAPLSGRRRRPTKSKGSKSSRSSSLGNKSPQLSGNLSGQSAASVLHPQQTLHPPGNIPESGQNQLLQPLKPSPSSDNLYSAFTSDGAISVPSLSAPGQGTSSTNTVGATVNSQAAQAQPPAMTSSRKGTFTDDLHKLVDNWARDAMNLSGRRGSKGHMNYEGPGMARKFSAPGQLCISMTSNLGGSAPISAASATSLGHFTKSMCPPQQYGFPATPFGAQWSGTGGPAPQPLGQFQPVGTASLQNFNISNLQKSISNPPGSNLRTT", "assay": "Inhibition of Wnk1 in human HeLa cells lysate at 50 uM pre incubated for 15 mins followed by ATP acyl phosphate probe addition and measured after 10 mins by LC-MS/MS analysis relative to control", "format": "subcellular", "conditions": "time 25.0 min"}}}
{"smiles": "CCOc1cc(N2CCC(O)CC2)ccc1Nc1ncc2c(n1)N(C)c1ccccc1C(=O)N2C", "values": [{"measurement": "inhibition", "setting": "[1]", "value": 2.6, "unit": "%"}, {"measurement": "inhibition", "setting": "[2]", "value": -0.6, "unit": "%"}, {"measurement": "inhibition", "setting": "[3]", "value": 11.5, "unit": "%"}, {"measurement": "IC50", "setting": "[4]", "value": "> 50", "unit": "µM"}, {"measurement": "inhibition", "setting": "[5]", "value": -7.3, "unit": "%"}, {"measurement": "inhibition", "setting": "[6]", "value": -0.4, "unit": "%"}, {"measurement": "Activity", "setting": "[7]", "value": 31, "unit": "%"}, {"measurement": "IC50", "setting": "[8]", "value": 34, "unit": "µM"}, {"measurement": "inhibition", "setting": "[9]", "value": -2.5, "unit": "%"}, {"measurement": "inhibition", "setting": "[10]", "value": -9.5, "unit": "%"}]}
